Values after ≈ are worked out from the molar mass of the structure shown. Residues, ends and D or L forms follow the SMILES beside them. *: point of attachment. Cbz = O=C(OCc1ccccc1)*
Settings: buffer; pH 7.4; 200.0 µM

| Compound | solubility kinetic [µg/mL] |
| --- | --- |
| O=C(O)/C=C/C(=O)N1CCc2ccccc21 | > 32.6 |
| O=C(Nc1sc2c(c1C(=O)O)CCC2)c1ccccc1F | > 45.8 |
| O=C(NCC(c1ccco1)N1CCOCC1)C1CCCCC1 (stereo not given) | > 46 |
| N#C/C(=C\c1ccc[nH]1)C(=O)Nc1ccccc1[N+](=O)[O-] | 0.4 (≈ 1.42 µM) |
| CCOc1ccccc1NC(=O)COC(=O)C1CCC1 | 39.2 (≈ 141 µM) |
| N#Cc1cc2ccccc2nc1SCC(=O)NC1CC1 | 3.2 (≈ 11.3 µM) |
| Cc1ccc(C(=O)NC2CCCCNC2=O)cc1 (stereo not given) | 33.3 (≈ 135 µM) |
| CCOC(=O)C1CCCCN1Cc1cccc(Oc2ccccc2)c1 (stereo not given) | < 0.7 |
| O=C1c2cccc3c([N+](=O)[O-])ccc(c23)C(=O)N1O | > 38.7 |
| Cc1c(C(=O)N2CCOCC2)sc(NC(=O)C(C)C)c1C#N | > 48.2 |
| COc1ccccc1OCC(O)COC(N)=O (stereo not given) | 29.9 (≈ 124 µM) |
| COc1ccc(-c2csc(NC(=O)c3ccoc3C)n2)cc1 | < 0.3 |
| Cc1ccc(CNc2nc3ccccc3n2C)o1 | > 36.2 |
| Cc1ccsc1C(=O)OCC(=O)NCCc1ccccc1 | 10.4 (≈ 34.3 µM) |
| COC1c2ccccc2C(=O)N1CCc1ccc(Cl)cc1 (stereo not given) | 41.7 (≈ 138 µM) |
| Cc1cc(C)cc(N(CC(=O)N2CCCC2)S(C)(=O)=O)c1 | > 46.6 |
| COC(=O)c1ccc(C(=O)OC)c(NC(=O)C2CCCO2)c1 (stereo not given) | 45.3 (≈ 147 µM) |
| C/C(=N\O)c1ccc2c(c1)CC(C)O2 (stereo not given) | > 28.7 |
| COc1ccc(CCNC(=O)COC(=O)C2CC2)cc1OC | > 46.1 |
| O=C(CN1CCCCCC1)Nc1cccc([N+](=O)[O-])c1 | > 41.6 |
| CCCc1ncc(C(O)c2ccccc2OC)n1C (stereo not given) | > 39.1 |
| S=C(NCc1ccco1)Nc1ccc(Cl)cn1 | 4.1 (≈ 15.3 µM) |
| O=S(=O)(c1ccccc1F)N1CCCc2ccccc21 | 11.2 (≈ 38.4 µM) |
| COc1cc2c(cc1Cl)C(=O)C(F)(c1ccccc1)C(=O)N2 (stereo not given) | 0.8 (≈ 2.5 µM) |

| Compound | solubility kinetic [µg/mL] |
| --- | --- |
| O=c1[nH]c(/C=C\c2ccc(O)c(Cl)c2)nc(O)c1[N+](=O)[O-] | 44 (≈ 142 µM) |
| N#CC1CN(Cc2ccccc2)CN(Cc2ccccc2)C1 | 32.9 (≈ 113 µM) |
| CN(C(=O)COc1ccc(Br)cc1Cl)C1CCCCC1 | 19.8 (≈ 54.9 µM) |
| O=C(O)c1cccc(S(=O)(=O)Nc2ccc3c(c2)CCC3)c1 | > 47.6 |
| CCN(CC)c1c([N+](=O)[O-])c(=O)n(C)c2ccccc12 | 24.9 (≈ 90.4 µM) |
| NC(=S)Nc1c(Cl)cccc1Cl | > 33.2 |
| Cn1nc(C(C)(C)C)cc1C(=O)O | > 27.3 |
| Clc1ccccc1N=C1SCCS1 | 18.2 (≈ 79.2 µM) |
| COc1ccc(/C=C/C(=O)NC2CCS(=O)(=O)C2)cc1 (stereo not given) | > 44.3 |
| Cc1ccc(Cl)cc1N1CCN(CC(O)COC(C)C)CC1.Cl (stereo not given) | > 54.5 |
| CCOC(=O)Cc1csc(NC(=O)Cc2ccc(C)cc2)n1 | 45.2 (≈ 142 µM) |
| CC1CC(C)CN(C(=O)CSc2n[nH]c(N)n2)C1 (stereo not given) | > 40.4 |
| CCOC(=O)C1=C(c2ccccc2)OC(N)=C(C#N)C1c1cccnc1 (stereo not given) | 35.9 (≈ 103 µM) |
| COc1cc(/C=N/NC(=O)CNC(=O)c2ccncc2)ccc1O | > 49.2 |
| CC(C)c1nc2cc(Cl)ccc2n(Cc2ccccc2)c1=O | 0.4 (≈ 1.28 µM) |
| OCCOCCN1CCN(C2=Nc3ccccc3Sc3ccccc32)CC1 | 49.4 (≈ 129 µM) |
| CCOc1ccc2nc(N(CCN(C)C)C(=O)c3cc4ccccc4cc3OC)sc2c1.Cl | 4.2 |
| CCOC(=O)N1CCN(CCC(=O)Nc2cc(C)ccc2C)CC1 | > 50 |
| CN1C(=O)C(=Cc2cn(CC#N)c3ccccc23)C(=O)N(C)C1=O | 8.1 (≈ 25.1 µM) |
| O=[N+]([O-])c1cccc(-c2csc(CS(=O)(=O)Cc3ccco3)n2)c1 | 0.6 (≈ 1.65 µM) |
| Cc1ccc(S(=O)(=O)N2CCCCC2)cc1NC(=O)CN1C(=O)c2ccccc2S1(=O)=O | 20.7 (≈ 43.3 µM) |
| Cc1ccc(NC(=O)CCC(=O)N2CCOCC2)nc1 | > 41.6 |
| C=CCOc1c(Cl)cc(C(=S)N2CCCC2)cc1OCC | 5.7 (≈ 17.5 µM) |
| CN(C)CCCNC(=S)Nc1ccc(Oc2ccccc2)cc1 | 43.1 (≈ 131 µM) |

| Compound | solubility kinetic [µg/mL] |
| --- | --- |
| COC(=O)c1ccc(NC(=S)NC2CC2)cc1 | > 37.5 |
| CC(C)OCCCNc1ncnc2c1nc1n2CCCC1 | > 43.4 |
| COc1ccc(-c2nc(C)sc2CC(=O)O)cc1OC | 42 (≈ 143 µM) |
| COc1cccc(NS(=O)(=O)c2ccc3c(c2)CCN3C(C)=O)c1 | 3.3 (≈ 9.53 µM) |
| COc1ccc(CCNC(=O)c2cccnc2SC)cc1 | 16 (≈ 52.9 µM) |
| C=CCN1C(=O)C2(OCCCO2)c2cccc(C)c21 | 37.9 (≈ 146 µM) |
| CC(C)n1cnnc1SCC(=O)Nc1cccnc1Cl | > 46.8 |
| O=C(COC(=O)c1ccc([N+](=O)[O-])s1)NNC(=O)c1ccccc1 | > 52.4 |
| Cc1cc(C)nc(SCC(=O)c2ccc(F)cc2)n1 | 38.5 (≈ 139 µM) |
| CCC(Cc1ccccc1)NC(=O)C1CC1 (stereo not given) | > 32.6 |
| N#Cc1cccc(NC(=O)Cc2ccsc2)c1 | 33.4 (≈ 138 µM) |
| CN1CCN(C(=S)C(=O)Nc2ccccc2)CC1 | 38.2 (≈ 145 µM) |
| COc1cccc(CNCCc2c[nH]c3ccccc23)c1OC.Cl | > 52 |
| O=C1CNC(=O)/C1=C/c1ccc(Br)cc1 | 26.9 (≈ 101 µM) |
| CNC(=O)c1cc2cc(Br)ccc2s1 | 8.1 (≈ 30 µM) |
| O=C(NCC1CCCO1)c1cnn2c(C(F)F)cc(C3CC3)nc12 (stereo not given) | > 50.5 |
| O=C(Nc1ccc2oc(-c3ccncc3)nc2c1)c1ccccc1 | < 0.2 |
| CCCCC(=O)NC(=S)Nc1ccc(NC(=O)C(C)C)c(OC)c1 | 5.4 (≈ 15.4 µM) |
| COc1cccc(-c2nc(CCl)cs2)c1.Cl | 22.4 |
| C=CCSc1nc(N2CCOCC2)c2c(c1C#N)CC(C)(C)N(C)C2 | 49.9 (≈ 139 µM) |
| CCCCc1nnc(SCC(=O)NC2CCCCC2)n1C | > 46.6 |
| Cc1[nH]c(=O)[nH]c(=O)c1S(=O)(=O)Nc1ccc(S(N)(=O)=O)cc1 | 48.8 (≈ 135 µM) |
| O=C(CN1C(=O)COc2ccccc21)NCC1CCCO1 (stereo not given) | > 43.5 |
| O=C(c1ccccc1F)N1CCC2(CC1)OCCO2 | > 39.8 |

| Compound | solubility kinetic [µg/mL] |
| --- | --- |
| CCCCn1c(=O)c(CCC(=O)O)nc2ccccc21 | 31.8 (≈ 116 µM) |
| COc1cc(OC)cc(C(=O)NCC(=O)NCc2ccccn2)c1 | > 49.4 |
| CN(C)S(=O)(=O)c1cccc(NC(=O)C2CCN(S(=O)(=O)c3cccs3)CC2)c1 | 23.4 (≈ 51.1 µM) |
| CCCC(=O)N/C(N)=N/c1nc2ccccc2o1 | 11.9 (≈ 48.3 µM) |
| COc1ccccc1N1Cc2ccc(OC)c(OC)c2C1=O | > 44.9 |
| CCCCn1c(O)c(/C=C2\C=Nc3ccccc32)c(=O)[nH]c1=O | 3.1 (≈ 9.96 µM) |
| CC(NC(=O)c1ccccc1Cl)C(=O)OCc1cn2cc(Cl)ccc2n1 (stereo not given) | > 58.8 |
| COC(=O)C(C)NC(=O)C1CCCN1C(=O)CNC(=O)OCc1ccccc1 (stereo not drawn) (Cbz-Gly-Pro-Ala-OMe; configuration not given here) | > 58.7 |
| CCN1C(=O)c2cccc3c(S(=O)(=O)Nc4ccccc4O)ccc1c23 | 0.5 (≈ 1.36 µM) |
| COc1ccc(C(=O)NCC(=O)N/N=C/c2cccnc2)cc1 | > 46.8 |
| COc1ccccc1Nc1nc(N)nc(CCl)n1 | 35.4 (≈ 133 µM) |
| Cc1ccc(S(=O)(=O)NC(=O)Nc2ccc(OC(F)F)cc2)cc1 | 52.3 (≈ 147 µM) |
| O=C(CN1CCOCC1)Nc1scc2c1c(=O)oc1ccccc12 | < 0.4 |
| CN(C)c1ccc(C(=O)C(=O)c2ccccc2)cc1 | 10.8 (≈ 42.6 µM) |
| CCN1CCN(S(=O)(=O)c2ccc(OC)c3ccccc23)CC1 | 29.2 (≈ 87.3 µM) |
| O=C(Cc1ccccc1)NCc1ccccn1 | > 33.9 |
| Cc1[nH]c2ccccc2c1C(=O)C(=O)NC1CC1 | > 36.3 |
| CC(C)(Oc1ccc(Cl)cc1)C(=O)N1CCN(C(=O)c2ccco2)CC1 | > 56.5 |
| CC(c1ccccc1)N1CC(C(=O)O)CC1=O (stereo not given) | > 35 |
| Cc1cccc(OCC(=O)OCC(=O)Nc2sccc2C(N)=O)c1 | 44.2 (≈ 127 µM) |
| COc1ccc(C(=O)NCC(=O)OCc2ccccc2F)cc1 | 47.6 (≈ 150 µM) |
| COc1ccc(C(=O)O/N=C(\N)c2ccc(OC)c(OC)c2)cc1 | 9.3 (≈ 28.2 µM) |
| Cc1cccc(S(=O)(=O)N2CCCc3ccccc32)c1 | 6.7 (≈ 23.3 µM) |
| CC(=O)Nc1ccc(OCC(O)Cn2nc(C)c(C)c2C)cc1 (stereo not given) | > 47.6 |

| Compound | solubility kinetic [µg/mL] |
| --- | --- |
| O=C(COC(=O)CCc1ccc(S(=O)(=O)N2CCOCC2)cc1)Nc1ccccc1[N+](=O)[O-] | 16.8 (≈ 35.2 µM) |
| CC(=O)N1CCN(c2nc(N)c(C#N)c(CC#N)c2C#N)CC1 | > 46.4 |
| Cc1ccc(NC(=O)CC2CCCC2)c(Br)c1 | 2.4 (≈ 8.1 µM) |
| O=C1c2ccc([N+](=O)[O-])cc2C(=O)N1c1ccc([N+](=O)[O-])cn1 | 41.3 (≈ 131 µM) |
| Cc1ccc(NS(=O)(=O)c2c(C)[nH]c(=O)[nH]c2=O)c(C)c1 | > 46.4 |
| CCCCCCC(Cl)(Cn1ccnc1)c1ccccc1.O=[N+]([O-])O (stereo not given) | 35.3 |
| COc1ccc(/C=C(\C#N)C(=O)NC(C)c2ccccc2)cc1O (stereo not given) | 18.3 (≈ 56.8 µM) |
| CCN(CC(=O)Nc1c(F)cccc1F)C(=O)C1CC1C (stereo not given) | > 44.4 |
| O=C(c1ccc(F)cc1)N1CCCC(c2ccccc2)C1 (stereo not given) | 36.3 (≈ 128 µM) |
| Cc1ccc2cccc(SCC(=O)Nc3ccc(F)cc3)c2n1 | < 0.3 |
| CCN(CC)S(=O)(=O)c1ccc(N2CCOCC2)c(NC(=O)c2sccc2C)c1 | 11.4 (≈ 26.1 µM) |
| CCNC(=O)N1CCN(C(=O)NCC)CC1 | 13.6 (≈ 59.6 µM) |
| CN(C)P(=O)(NC(=O)c1cccn1C)N(C)C | > 38.7 |
| Cc1cccc(S(=O)(=O)N2CCn3cccc3C2C)c1 (stereo not given) | > 43.6 |
| COc1ccc(CSc2nc(O)cc(=O)n2CC(C)C)cc1F | > 50.8 |
| CC1CN(C(=O)c2ccc(COc3ccccc3Cl)o2)CC(C)O1 (stereo not given) | > 52.5 |
| C#CCOc1ccc(/C=C2/C(=O)ON=C2C)cc1OCC | 27.1 (≈ 95 µM) |
| CC(C)c1ccc(NC(=O)CN2C(=O)NC3(CCCC3)C2=O)cc1 | > 49.4 |
| CC(NC(=O)NC(=O)c1ccc(Cl)cc1)c1ccccc1 (stereo not given) | 0.4 (≈ 1.32 µM) |
| CC(=O)N1CCN(c2c(F)c(F)c(C(F)(F)F)c(F)c2F)CC1 | 47.9 (≈ 139 µM) |
| COc1ccc(C2CC(=O)C=C(NCc3ccc4c(c3)OCO4)C2)cc1 (stereo not given) | 8.5 (≈ 24.2 µM) |
| O=C(OCc1nc2ccccc2s1)c1ccc([N+](=O)[O-])o1 | 1.1 (≈ 3.62 µM) |
| CC(C)=CC(=O)OCC(=O)Nc1cc(C)ccc1C | 15 (≈ 57.4 µM) |
| CCCn1c(=O)c2c(nc3n2CCCN3Cc2ccccc2)n(C)c1=O | 17.6 (≈ 49.8 µM) |

Source: PubChem BioAssay AID1996
